Reference: ChEMBL document CHEMBL1201862, “PubChem BioAssay data set” (2004)
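Tested at 5 concentrations; 48 h exposure; 96-well plates; endpoints linearly interpolated, else capped at highest concentration. Abbreviation: GI50, concentration required for 50% inhibition of growth.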 Activity calls are given as the source filed them. Cut-off read from the data, not from the text of the source: active = GI50 up to about 1.1 µM and inactive = higher.

Tests used:
Assay in all cases: DTP human tumour cell line panel, 48 h
[1] = test system: SNB-75
[2] = test system: HCT-15
[3] = test system: A498
[4] = test system: LOX IMVI
[5] = test system: MDA-MB-231
[6] = test system: RPMI-8226
[7] = test system: SF-268
[8] = test system: SF-539
[9] = test system: DU-145
[10] = test system: SK-OV-3
[11] = test system: UACC-62
[12] = test system: SNB-19
[13] = test system: U-251
[14] = test system: K562
[15] = test system: NCI-H226
[16] = test system: PC-3
[17] = test system: OVCAR-8
[18] = test system: HOP-92
[19] = test system: SK-MEL-28

CCOc1ccc(Nc2nc(N)nc(N)c2N=O)cc1
GI50 [1]: 28.1 µM (inactive) | GI50 [2]: 37.7 µM | GI50 [3]: > 100 µM (inactive) | GI50 [4]: 32.1 µM (inactive) | GI50 [5]: 40 µM (inactive) | GI50 [6]: 47.4 µM (inactive) | GI50 [7]: 89.7 µM (inactive) | GI50 [8]: 80.5 µM (inactive) | GI50 [9]: 38 µM (inactive) | GI50 [10]: > 100 µM (inactive) | GI50 [11]: 44.1 µM (inactive) | GI50 [12]: 61 µM (inactive) | GI50 [13]: > 100 µM (inactive) | GI50 [14]: 53.5 µM (inactive) | GI50 [15]: 39.6 µM (inactive) | GI50 [16]: 28.4 µM (inactive) | GI50 [17]: 51.1 µM (inactive) | GI50 [18]: 17.9 µM (inactive) | GI50 [19]: 66.5 µM (inactive)

COc1ccc(/C=C/C(=O)c2cc(OC)cc(OC)c2)cc1
GI50 [1]: 2.64 µM (inactive) | GI50 [2]: 0.543 µM | GI50 [3]: 3.67 µM (inactive) | GI50 [4]: 1.35 µM (inactive) | GI50 [5]: 6.79 µM (inactive) | GI50 [6]: 0.646 µM (active) | GI50 [7]: 5.4 µM (inactive) | GI50 [8]: 1.05 µM (active) | GI50 [9]: 3.24 µM (inactive) | GI50 [10]: 6.71 µM (inactive) | GI50 [11]: 4.14 µM (inactive) | GI50 [12]: 1.69 µM (inactive) | GI50 [13]: 1.24 µM (inactive) | GI50 [14]: 2.59 µM (inactive) | GI50 [15]: 10.2 µM (inactive) | GI50 [16]: 6.12 µM (inactive) | GI50 [17]: 3.39 µM (inactive) | GI50 [18]: 20.8 µM (inactive) | GI50 [19]: 5.97 µM (inactive)

N#C/C(=C1\N=C(c2ccccc2O)Oc2ccccc21)c1ccc([N+](=O)[O-])cc1
GI50 [1]: 70.6 µM (inactive) | GI50 [2]: > 100 µM | GI50 [3]: > 100 µM (inactive) | GI50 [4]: > 100 µM (inactive) | GI50 [5]: > 100 µM (inactive) | GI50 [6]: > 100 µM (inactive) | GI50 [7]: > 100 µM (inactive) | GI50 [8]: 66.5 µM (inactive) | GI50 [9]: > 100 µM (inactive) | GI50 [10]: > 100 µM (inactive) | GI50 [11]: > 100 µM (inactive) | GI50 [12]: > 100 µM (inactive) | GI50 [13]: 71.9 µM (inactive) | GI50 [14]: > 100 µM (inactive) | GI50 [15]: > 100 µM (inactive) | GI50 [16]: > 100 µM (inactive) | GI50 [17]: > 100 µM (inactive) | GI50 [18]: > 100 µM (inactive) | GI50 [19]: > 100 µM (inactive)

CO/N=[N+](\[O-])NC(C)C
GI50 [1]: > 100 µM (inactive) | GI50 [2]: > 100 µM | GI50 [3]: > 100 µM (inactive) | GI50 [4]: > 100 µM (inactive) | GI50 [5]: > 100 µM (inactive) | GI50 [6]: > 100 µM (inactive) | GI50 [7]: > 100 µM (inactive) | GI50 [8]: > 100 µM (inactive) | GI50 [9]: > 100 µM (inactive) | GI50 [10]: > 100 µM (inactive) | GI50 [11]: > 100 µM (inactive) | GI50 [12]: > 100 µM (inactive) | GI50 [13]: > 100 µM (inactive) | GI50 [14]: > 100 µM (inactive) | GI50 [15]: > 100 µM (inactive) | GI50 [16]: > 100 µM (inactive) | GI50 [17]: > 100 µM (inactive) | GI50 [18]: > 100 µM (inactive) | GI50 [19]: > 100 µM (inactive)

COc1ccc2c(C)cc(N/N=C(\C)C=O)nc2c1
GI50 [1]: 13.6 µM (inactive) | GI50 [2]: 3.78 µM | GI50 [3]: 14.5 µM (inactive) | GI50 [4]: 10.2 µM (inactive) | GI50 [5]: 9.33 µM (inactive) | GI50 [6]: 6.31 µM (inactive) | GI50 [7]: 13.8 µM (inactive) | GI50 [8]: 6.25 µM (inactive) | GI50 [9]: 11.7 µM (inactive) | GI50 [10]: 11.2 µM (inactive) | GI50 [11]: 12.6 µM (inactive) | GI50 [12]: 13 µM (inactive) | GI50 [13]: 11.4 µM (inactive) | GI50 [14]: 2.47 µM (inactive) | GI50 [15]: 10.5 µM (inactive) | GI50 [16]: 9.2 µM (inactive) | GI50 [17]: 11.5 µM (inactive) | GI50 [18]: 10.5 µM (inactive) | GI50 [19]: 13.7 µM (inactive)

CN1CCN(CCCCN2c3ccccc3Sc3ccc(C(=O)c4ccccc4)cc32)CC1
GI50 [1]: 1.26 µM (inactive) | GI50 [2]: 1.67 µM | GI50 [3]: 1.56 µM (inactive) | GI50 [4]: 1.46 µM (inactive) | GI50 [5]: 1.9 µM (inactive) | GI50 [6]: 1.79 µM (inactive) | GI50 [7]: 2.23 µM (inactive) | GI50 [8]: 1.83 µM (inactive) | GI50 [9]: 2.29 µM (inactive) | GI50 [10]: 1.57 µM (inactive) | GI50 [11]: 1.26 µM (inactive) | GI50 [12]: 1.91 µM (inactive) | GI50 [13]: 1.69 µM (inactive) | GI50 [14]: 1.48 µM (inactive) | GI50 [15]: 1.8 µM (inactive) | GI50 [16]: 1.5 µM (inactive) | GI50 [17]: 1.5 µM (inactive) | GI50 [18]: 1.82 µM (inactive) | GI50 [19]: 1.49 µM (inactive)

C/C=C1/CN2CCC34c5ccccc5N(C)C23C2CC1C4(C(=O)OC)C(O)O2 (stereo not drawn)
GI50 [1]: > 100 µM (inactive) | GI50 [2]: > 100 µM | GI50 [3]: > 100 µM (inactive) | GI50 [4]: > 100 µM (inactive) | GI50 [5]: > 100 µM (inactive) | GI50 [6]: > 100 µM (inactive) | GI50 [7]: > 100 µM (inactive) | GI50 [8]: > 100 µM (inactive) | GI50 [9]: > 100 µM (inactive) | GI50 [10]: > 100 µM (inactive) | GI50 [11]: > 100 µM (inactive) | GI50 [12]: > 100 µM (inactive) | GI50 [13]: > 100 µM (inactive) | GI50 [14]: > 100 µM (inactive) | GI50 [15]: > 100 µM (inactive) | GI50 [16]: > 100 µM (inactive) | GI50 [17]: > 100 µM (inactive) | GI50 [18]: > 100 µM (inactive) | GI50 [19]: > 100 µM (inactive)
